This test addresses T1, p38alpha (Homo sapiens, UniProt Q16539).
T1 construct: purchased Invitrogen PV3304
Kind of test: P38alpha Enzyme Inhibition Assay (Alphascreen kinase activity assay). The test is classed as biochemical. The conditions noted are these: 100 pM p38alpha, ATF-2 fusion protein substrate, 250 μM ATP, 2 hours preincubation at 25° C.; read-out: p38α inhibition. The method, then: P38alpha Enzyme Inhibition Assay
The inhibitory activity of compounds was determined using an Alphascreen® (Perkin Elmer) based kinase activity assay. Kinase reactions consisted of 25 mM HEPES pH 7.5, 10 mM MgCl2, 100 μM Na3VO4, 2 mM DTT, 0.05 mg/ml Tween 20, 100 pM p38alpha (Invitrogen, PV3304), 1% DMSO and 0.3 μg/ml ATF-2 fusion protein (New England Biolabs, 9224). Compounds were incubated under these conditions for 2 hours, at 25° C., prior to the initiation of the kinase activity by the addition of the 250 μM ATP. Reaction volumes were 20 uL. After 1 hr at 25° C. reactions were stopped by the adding 10 uL of 25 mM HEPES pH 7.5 containing 62.5 mM EDTA, 0.05% Triton X-100, 10% BSA and 0.83 ng/uL anti-phospho-ATF2 antibody (Abcam, ab28812). Detection was performed by measuring luminescence following the addition of Alphascreen Donor beads (Perkin Elmer 6765300) and Protein A Alphascreen Acceptor beads (Perkin Elmer 6760137), both at a final concentration of 20 ug/ml. IC50 values were determined from concentration-response curves.
Background: Bead proximity is the source of the signal in Alpha formats.

Results on seven compounds are retold here after patent US9458154B2, “Kinase inhibitors” (Chiesi Farmaceutici S.p.A., priority 2011, dated 2016).

pIC50: −log10 of the molar value. Some results are limits rather than exact numbers.

T1 sequence (Q16539 whole entry): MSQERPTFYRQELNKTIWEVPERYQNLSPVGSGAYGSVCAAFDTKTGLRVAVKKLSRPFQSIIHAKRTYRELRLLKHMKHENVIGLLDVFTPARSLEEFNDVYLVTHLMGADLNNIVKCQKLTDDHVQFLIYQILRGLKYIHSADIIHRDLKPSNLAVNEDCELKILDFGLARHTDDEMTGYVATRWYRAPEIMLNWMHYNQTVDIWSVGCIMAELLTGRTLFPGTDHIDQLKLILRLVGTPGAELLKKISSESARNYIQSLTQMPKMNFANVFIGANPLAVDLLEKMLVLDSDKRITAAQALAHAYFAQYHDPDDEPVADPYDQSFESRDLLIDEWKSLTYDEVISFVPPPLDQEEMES

On to `CC(C)c1nnc2ccc(O[C@H]3CC[C@H](NC(=O)Nc4cc(C(C)(C)C)nn4-c4ccc(O)c(Cl)c4)c4ccccc43)cn12` [Example 25, 1-[5-tert-Butyl-2-(3-chloro-4-hydroxy-phenyl)-2H-pyrazol-3-yl]-3-[(1S,4S)-4-(3-isopropyl-[1,2,4]triazolo[4,3-a]pyridin-6-yloxy)-1,2,3,4-tetrahydro-naphthalen-1-yl]-urea], for which the pIC50 is more than 8.00.

Turning to `Cc1ccc(-n2nc(C(C)(C)C)cc2NC(=O)N[C@H]2CC[C@@H](Oc3ccc4nnc(C5CCCCC5)n4c3)c3ccccc32)cc1` [Example 26, 1-(5-tert-Butyl-2-p-tolyl-2H-pyrazol-3-yl)-3-[(1S,4R)-4-(3-cyclohexyl-[1,2,4]triazolo[4,3-a]pyridin-6-yloxy)-1,2,3,4-tetrahydro-naphthalen-1-yl]-urea], the pIC50 is more than 8.00.

As for `CC(C)c1nnc2ccc(O[C@H]3CC[C@H](NC(=O)Nc4cc(C(C)(C)C)nn4-c4ccc(Cl)c(O)c4)c4ccccc43)cn12` [Example 27, 1-[5-tert-Butyl-2-(4-chloro-3-hydroxy-phenyl)-2H-pyrazol-3-yl]-3-[(1S,4S)-4-(3-isopropyl-[1,2,4]triazolo[4,3-a]pyridin-6-yloxy)-1,2,3,4-tetrahydro-naphthalen-1-yl]-urea], the pIC50 was more than 8.00.

Regarding `COc1c(NC(=O)N[C@H]2CC[C@@H](Oc3ccc4nnc(C(C)C)n4c3)c3ccccc32)cc(C(C)(C)C)cc1NS(C)(=O)=O` [Example 28, N-(5-tert-Butyl-3-{3-[(1S,4R)-4-(3-isopropyl-[1,2,4]triazolo[4,3-a]pyridin-6-yloxy)-1,2,3,4-tetrahydro-naphthalen-1-yl]-ureido}-2-methoxy-phenyl)-methanesulfonamide], the pIC50 was more than 8.00.

As for `CC(C)c1nnc2ccc(O[C@@H]3CC[C@H](NC(=O)Nc4cc(F)cc(N5CCOCC5)c4)c4ccccc43)cn12` [Example 29, 1-(3-Fluoro-5-morpholin-4-yl-phenyl)-3-[(1S,4R)-4-(3-isopropyl-[1,2,4]triazolo[4,3-a]pyridin-6-yloxy)-1,2,3,4-tetrahydro-naphthalen-1-yl]-urea], the pIC50 was more than 8.00.

As to `CC(C)c1nnc2ccc(O[C@H]3CC[C@H](NC(=O)Nc4cc(F)cc(N5CCOCC5)c4)c4ccccc43)cn12` [Example 30, 1-(3-Fluoro-5-morpholin-4-yl-phenyl)-3-[(1S,4S)-4-(3-isopropyl-[1,2,4]triazolo[4,3-a]pyridin-6-yloxy)-1,2,3,4-tetrahydro-naphthalen-1-yl]-urea], the pIC50 was more than 8.00.

`CC(C)c1nnc2ccc(O[C@@H]3CC[C@H](NC(=O)Nc4cc(C(C)(C)C)nn4-c4ccc(F)c(CN5CCOCC5)c4)c4ccccc43)cn12` [Example 31, 1-{5-tert-Butyl-2-(4-fluoro-3-morpholin-4-ylmethyl-phenyl)-2H-pyrazol-3-yl}-3-[(1S,4R)-4-(3-isopropyl-[1,2,4]triazolo[4,3-a]pyridin-6-yloxy)-1,2,3,4-tetrahydro-naphthalen-1-yl]-urea]: the pIC50 was more than 8.00.
